Reference: patent publication US6241963A, “Dopamine and serotonin transporter ligands and imaging agents” (priority 1996, dated 2001)
“And” between values parts separate entries of the source, which are not always exact repeats. Identical values can stand only once. Like-named read-outs stand apart in the source and are kept apart here.

Assays:
[1] = target: dopamine transporters (Rattus norvegicus, UniProt P23977); type: in vivo, Male Sprague-Dawley rats; settings: rats, iv
Procedure: For dopamine transporter imaging agents, the target area of the brain is the striatum, where dopamine transporters are highly concentrated. The cerebellum region is suitable for use as the background region, because it has no dopamine transporters. The specific uptake is measured by the ratio of % dose/gram of striatum divided by % dose/gram of cerebellum (ST/CB ratio)--the higher the value, the better the specific uptake, and the more promising as a dopamine transporter imaging agent.
(§1) Regional brain distribution in rats was obtained after an injection of 1.19a, 1.19b, 1.20a, 1.20b or 1.21. Samples from different brain regions (cortex, striatum, hippocampus, and cerebellum) were dissected, weighed and counted, and the percentage dose per gram of sample was calculated by comparing the sample counts with the count of the diluted initial dose. The uptake ratio of each region was obtained by dividing the percentage dose per gram of that region by that of the cerebellum. For blocking studies, rats were injected with either β-CIT or haloperidol (iv, 1 mg/Kg) 5 min prior to injection of 1.19a. The rats were dissected and brain tissue samples were counted as described above. The specific uptake of the compound was expressed as ratio of ST/CB (% dose/g of striatum divided by the same of cerebellum).
(§2) The major criteria for determining the potential usefulness of in vivo dopamine transporter imaging agents are based on an animal biodistribution study. In this case, rats were used as an animal model. After an intravenous injection of the Tc-99m labeled compounds, the values of initial brain uptake (% dose/whole organ) at 2 minutes post intravenous injection are used to measure the ability to penetrate the intact blood-brain barrier. Compounds displaying higher brain uptake are the better agents (minimum requirement >0.1% dose in brain). The second criteria is the specific uptake in the striatum region of the brain, where dopamine transporters are located. The uptake value (% dose/gram) of the striatum (ST) is divided by the background area, cerebellum (CB; essentially devoid of dopamine transporter); the ratio of ST/CB is an indicator for specific uptake (minimum requirement for ST/CB >1.5). Five structurally similar tropane derivatives were examined in this biological study. (Tables 1.1 to 1.4).
as §1, with “3.24 to 3.34.” for “1.19a, 1.19b, 1.20a, 1.20b or 1.21.”, “3.25.” for “1.19a.”, “above.” for “above. The specific uptake of the compound was expressed as ratio of ST/CB (% dose/g of striatum divided by the same of cerebellum).”

[2] = Partition coefficient between 1-octanol (n-octanol) and buffer; type: physicochemical
Procedure: (§3) Partition coefficients were measured by mixing each Tc-99m compound with 3 g each of 1-octanol and buffer (pH 7.0 or 7.4, 0.1 M phosphate) in a test tube. The test tube was vortexed for 3 minutes at room temperature, then centrifuged for 5 minutes. Two weighed samples (0.5 g each) from the 1-octanol and buffer layers were counted in a well counter. The partition coefficient was determined by calculating the ratio of cpm/g of octanol to that of buffer. Samples from the octanol layer were repartitioned until consistent partition coefficient values were obtained. The measurement was repeated 3 times.
as §3, with “The partition coefficient was measured” for “Partition coefficients were measured”, “mixing the” for “mixing each”, “3 min” for “3 minutes”

[3] = type: in vivo, Male Sprague-Dawley rats
Procedure: Male Sprague-Dawley rats (225-300 g) allowed free access to food and water were used for in vivo biodistribution studies. Kung, 1984, supra; Kung, 1985, supra. While under ether anesthesia, 0.2 mL of a saline solution containing 1.19a, 1.19b, 1.20a, 1.20b or 1.21 (50-100 μCi) was injected directly into the femoral vein of rats, and the rats were sacrificed by cardiac excision at various time points post-injection. The organs of interest were removed and weighed, and the radioactivity was counted with an automatic gamma counter (Packard 5000). The percentage dose per organ was calculated by a comparison of the tissue counts to suitably diluted aliquots of the injected material. Total activities of blood and muscle were calculated under the assumption that they were 7% and 40% of the total body weight, respectively.
as §2
Male Sprague-Dawley rats (225-300 g) that were allowed free access to food and water were used for in vivo biodistribution studies. (Kung, 1984, supra; Kung, 1985, supra). While under halothane anesthesia, 0.2 mL of a saline solution containing 3.24 to 3.34 ([…]) was injected directly into the femoral vein of rats, and they were sacrificed by cardiac excision at various time points post-injection. The organs of interest were removed and weighed, and the radioactivity was counted with an automatic gamma counter (Packard 5000). The percentage dose per organ was calculated by a comparison of the tissue counts to suitably diluted aliquots of the injected material. Total activities of blood and muscle were calculated under the assumption that they were 7% and 40% of the total body weight, respectively.

[4] = Table 1.2, rats iv, percentage dose per organ

Sequence of dopamine transporters (P23977 whole entry): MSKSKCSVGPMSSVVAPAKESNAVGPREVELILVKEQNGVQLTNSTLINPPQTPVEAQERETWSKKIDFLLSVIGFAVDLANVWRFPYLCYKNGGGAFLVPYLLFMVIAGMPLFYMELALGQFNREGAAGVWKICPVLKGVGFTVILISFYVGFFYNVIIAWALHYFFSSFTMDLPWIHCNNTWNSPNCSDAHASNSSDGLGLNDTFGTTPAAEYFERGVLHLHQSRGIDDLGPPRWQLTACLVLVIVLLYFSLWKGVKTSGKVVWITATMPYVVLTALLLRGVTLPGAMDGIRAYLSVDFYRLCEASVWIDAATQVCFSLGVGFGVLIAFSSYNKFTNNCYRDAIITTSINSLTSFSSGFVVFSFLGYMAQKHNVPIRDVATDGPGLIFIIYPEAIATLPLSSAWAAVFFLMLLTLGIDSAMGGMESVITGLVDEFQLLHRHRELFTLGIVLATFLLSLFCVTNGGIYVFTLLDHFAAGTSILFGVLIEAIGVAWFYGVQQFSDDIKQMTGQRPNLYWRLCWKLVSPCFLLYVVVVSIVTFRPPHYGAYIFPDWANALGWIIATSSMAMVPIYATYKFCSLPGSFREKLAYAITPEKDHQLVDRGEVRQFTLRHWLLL

CN1[C@H]2CC[C@@H]1[C@@H](C[N+]13CC[S][99Tc-]14(=[O])[S]CC[N]4CC3)[C@@H](c1ccc(Cl)cc1)C2 (stereo partly shown) [Compound 1.19a]
ST/CB ratio, 2 min ([1]; 2 min): 0.93 ± 0.23 | ST/CB ratio, 30 min ([1]; 30 min): 2.04 ± 0.18 | ST/CB ratio, 30 min ([1]; 30 min, listed as TRODAT-1): 2.0 | ST/CB ratio, 60 min ([1]; 60 min): 2.66 and 2.66 ± 0.01 | ST/CB ratio, 120 min ([1]; 120 min): 3.90 ± 1.33 | ST/CB ratio, 240 min (4 hours) ([1]; 240 min): 4.07 | ST/CB ratio, 360 min ([1]; 360 min): 2.97 ± 0.14 | Partition coefficient (P.C.), 1-octanol/pH 7.0 buffer ([2]; 1-octanol/pH 7.0 phosphate buffer, listed as TRODAT-1): 227 | Biodistribution, Blood, 60 minutes* ([3]; Table 1.2, *unexplained): 6.29 ± 1.12 | Biodistribution, Brain, 60 minutes* ([3]; Table 1.2, *unexplained): 0.12 ± 0.01 | Biodistribution, Heart, 60 minutes* ([3]; Table 1.2, *unexplained): 0.25 ± 0.05 | Biodistribution, Kidney, 60 minutes* ([3]; Table 1.2, *unexplained): 1.76 ± 0.32 | Biodistribution, Liver, 60 minutes* ([3]; Table 1.2, *unexplained): 20.35 ± 0.99 | Biodistribution, Lung, 60 minutes* ([3]; Table 1.2, *unexplained): 1.76 ± 0.12 | Biodistribution, Muscle, 60 minutes* ([3]; Table 1.2, *unexplained): 10.37 ± 0.48 | Biodistribution, Skin, 60 minutes* ([3]; Table 1.2, *unexplained): 4.11 ± 0.29 | Biodistribution, Spleen, 60 minutes* ([3]; Table 1.2, *unexplained): 0.51 ± 0.06 | Biodistribution, Blood, 2 minutes [3, 4]: 4.94 ± 0.46 | Biodistribution, Blood, 60 minutes [3, 4]: 2.14 ± 0.17 | Biodistribution, Brain, 2 minutes [3, 4]: 0.43 ± 0.16 | Biodistribution, Brain, 60 minutes [3, 4]: 0.12 ± 0.00 | Biodistribution, Heart, 2 minutes [3, 4]: 1.47 ± 0.16 | Biodistribution, Heart, 60 minutes [3, 4]: 0.19 ± 0.02 | Biodistribution, Kidney, 2 minutes [3, 4]: 5.13 ± 0.75 | Biodistribution, Kidney, 60 minutes [3, 4]: 3.06 ± 0.14 | Biodistribution, Liver, 2 minutes [3, 4]: 16.62 ± 2.11 | Biodistribution, Liver, 60 minutes [3, 4]: 17.67 ± 3.42 | Biodistribution, Lung, 2 minutes [3, 4]: 6.82 ± 0.37 | Biodistribution, Lung, 60 minutes [3, 4]: 1.86 ± 0.36 | Biodistribution, Muscle, 2 minutes [3, 4]: 10.84 ± 1.95 | Biodistribution, Muscle, 60 minutes [3, 4]: 10.28 ± 1.36 | Biodistribution, Skin, 2 minutes [3, 4]: 2.66 ± 0.35 | Biodistribution, Skin, 60 minutes [3, 4]: 3.96 ± 0.22 | Biodistribution, Spleen, 2 minutes [3, 4]: 0.42 ± 0.16 | Biodistribution, Spleen, 60 minutes [3, 4]: 0.45 ± 0.05 | Brain uptake, 2 min ([3]; rats, iv, 2 min): 0.43 ± 0.16 % dose/organ | Brain uptake, 2 min ([3]; rats, iv, 2 min, listed as TRODAT-1): 0.425 ± 0.120 % dose/organ | Brain uptake, 30 min ([3]; rats, iv, 30 min): 0.232 ± 0.021 % dose/organ | Brain uptake, 60 min ([3]; rats, iv, 60 min): 0.12 ± 0.001 % dose/organ and 0.12 ± 0.00 % dose/organ

COC(=O)C1C(c2ccc(Cl)cc2)CC2CCC1N2CC[S][99Tc-]12(=[O])[S]CC[N+]1(C)CC[S]2 [Compound 3.25, [^99m Tc] technetium, [methyl 3-(4-chlorophenyl)-8-(2-mercaptoethyl)-8-azabicyclo [3.2.1]octane-2-carboxylato-S][[2,2'-(methylimino)bis[ethanethiolato]](2-)-N,S,S']oxo]
Cerebellum, 2 min ([1]; 2 min): 0.066 ± 0.017 % dose/g | Cortex, 2 min ([1]; 2 min): 0.060 ± 0.009 % dose/g | Hippocampus, 2 min ([1]; 2 min): 0.046 ± 0.005 % dose/g | ST/CB ratio, 2 min ([1]; 2 min): 0.82 | Striatum, 2 min ([1]; 2 min): 0.054 ± 0.010 % dose/g | Cerebellum, 30 min ([1]; 30 min): 0.027 ± 0.006 % dose/g | Cortex, 30 min ([1]; 30 min): 0.038 ± 0.007 % dose/g | Hippocampus, 30 min ([1]; 30 min): 0.028 ± 0.008 % dose/g | ST/CB ratio, 30 min ([1]; 30 min): 2.2 | Striatum, 30 min ([1]; 30 min): 0.060 ± 0.011 % dose/g | Cerebellum, 60 min ([1]; 60 min): 0.018 ± 0.001 % dose/g | Cortex, 60 min ([1]; 60 min): 0.026 ± 0.002 % dose/g | Hippocampus, 60 min ([1]; 60 min): 0.025 ± 0.003 % dose/g | ST/CB ratio, 60 min ([1]; 60 min): 3.5 | Striatum, 60 min ([1]; 60 min): 0.063 ± 0.001 % dose/g | Cerebellum, 120 min ([1]; 120 min): 0.011 % dose/g | Cortex, 120 min ([1]; 120 min): 0.015 % dose/g | Hippocampus, 120 min ([1]; 120 min): 0.011 % dose/g | ST/CB ratio, 120 min ([1]; 120 min): 2.8 | Striatum, 120 min ([1]; 120 min): 0.031 % dose/g | Partition coefficient / lipophilicity, comparison in words [2]: appears to be the best among this series of three plus one Tc complexes | Partition coefficient, n-octanol/buffer ([2]; n-octanol/phosphate buffer (pH 7.0 or 7.4)): 307 | Brain Uptake (% dose), 2 min ([3]; Table 3.1, rats, iv, 2 min): 0.100 ± 0.068 % dose | Brain Uptake (% dose), 30 min ([3]; Table 3.1, rats, iv, 30 min): 0.07 ± 0.003 % dose | Biodistribution and washout, in words ([3]; rats, iv): cleared from muscle, while liver accumulation increased with time | Blood uptake, 2 min ([3]; rats, iv, 2 min): 4.72 ± 1.37 % dose/organ | Brain uptake, 2 min ([3]; rats, iv, 2 min): 0.10 ± 0.02 % dose/organ | Heart uptake, 2 min ([3]; rats, iv, 2 min): 1.46 ± 0.37 % dose/organ | Kidney uptake, 2 min ([3]; rats, iv, 2 min): 5.67 ± 0.94 % dose/organ | Liver uptake, 2 min ([3]; rats, iv, 2 min): 13.51 ± 0.36 % dose/organ | Lung uptake, 2 min ([3]; rats, iv, 2 min): 6.41 ± 2.04 % dose/organ | Muscle uptake, 2 min ([3]; rats, iv, 2 min): 23.30 ± 3.82 % dose/organ | Skin uptake, 2 min ([3]; rats, iv, 2 min): 2.94 ± 0.36 % dose/organ | Spleen uptake, 2 min ([3]; rats, iv, 2 min): 0.36 ± 0.07 % dose/organ | Blood uptake, 30 min ([3]; rats, iv, 30 min): 2.75 ± 0.62 % dose/organ | Brain uptake, 30 min ([3]; rats, iv, 30 min): 0.06 ± 0.02 % dose/organ | Heart uptake, 30 min ([3]; rats, iv, 30 min): 0.30 ± 0.04 % dose/organ | Kidney uptake, 30 min ([3]; rats, iv, 30 min): 3.10 ± 0.68 % dose/organ | Liver uptake, 30 min ([3]; rats, iv, 30 min): 29.61 ± 2.22 % dose/organ | Lung uptake, 30 min ([3]; rats, iv, 30 min): 2.09 ± 0.47 % dose/organ | Muscle uptake, 30 min ([3]; rats, iv, 30 min): 16.70 ± 3.62 % dose/organ | Skin uptake, 30 min ([3]; rats, iv, 30 min): 4.71 ± 1.27 % dose/organ | Spleen uptake, 30 min ([3]; rats, iv, 30 min): 0.61 ± 0.10 % dose/organ | Blood uptake, 60 min ([3]; rats, iv, 60 min): 2.83 ± 0.42 % dose/organ | Brain uptake, 60 min ([3]; rats, iv, 60 min): 0.046 ± 0.002 % dose/organ | Heart uptake, 60 min ([3]; rats, iv, 60 min): 0.22 ± 0.23 % dose/organ | Kidney uptake, 60 min ([3]; rats, iv, 60 min): 2.87 ± 0.43 % dose/organ | Liver uptake, 60 min ([3]; rats, iv, 60 min): 32.15 ± 3.00 % dose/organ | Lung uptake, 60 min ([3]; rats, iv, 60 min): 1.26 ± 0.06 % dose/organ | Muscle uptake, 60 min ([3]; rats, iv, 60 min): 13.63 ± 0.99 % dose/organ | Skin uptake, 60 min ([3]; rats, iv, 60 min): 4.57 ± 0.65 % dose/organ | Spleen uptake, 60 min ([3]; rats, iv, 60 min): 0.50 ± 0.09 % dose/organ | Blood uptake, 120 min ([3]; rats, iv, 120 min): 2.31 ± 0.27 % dose/organ | Brain uptake, 120 min ([3]; rats, iv, 120 min): 0.025 ± 0.002 % dose/organ | Heart uptake, 120 min ([3]; rats, iv, 120 min): 0.12 ± 0.013 % dose/organ | Kidney uptake, 120 min ([3]; rats, iv, 120 min): 2.74 ± 0.096 % dose/organ | Liver uptake, 120 min ([3]; rats, iv, 120 min): 35.37 ± 1.52 % dose/organ | Lung uptake, 120 min ([3]; rats, iv, 120 min): 0.69 ± 0.061 % dose/organ | Muscle uptake, 120 min ([3]; rats, iv, 120 min): 4.33 ± 1.20 % dose/organ | Skin uptake, 120 min ([3]; rats, iv, 120 min): 2.30 ± 0.082 % dose/organ | Spleen uptake, 120 min ([3]; rats, iv, 120 min): 0.58 ± 0.009 % dose/organ
